Consider 26 compounds from patent US10577378B2, “EIF4A-inhibiting compounds and methods related thereto” (eFFECTOR Therapeutics, Inc., priority 2015, dated 2020).

This test concerns MDA-MB-231 human breast cancer cells. The test can be described thus: Cell proliferation assay (CellTiter-Glo, 72 hours treatment). The class given is cell-based. The conditions noted are these: Homo sapiens; MDA-MB-231 cells, 72 hours at 37° C., CellTiter-Glo; read-out: MDA-MB-231 cell proliferation assay (IC50). In a few lines: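 MDA-MB-231 cells seeded at 2,500 cells/well, treated next day with compound or DMSO vehicle for 72 h at 37 °C. Proliferation read by CellTiter-Glo; IC50 from sigmoidal non-linear regression, binned as +++ (<100 nM), ++ (100–1000 nM), + (>1000 nM).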
A general note: ATP-based viability assays read luminescence as a measure of living cells.

Consider `COC(=O)[C@@]12C[C@@H]1[C@@]1(O)c3ncc(Cl)cc3O[C@@]1(c1ccc(Br)cc1)[C@@H]2c1ccccc1` (racemic) [24F, rac-methyl (5aR,6R,6aS,7aS,7bR)-5a-(4-bromophenyl)-3-chloro-7b-hydroxy-6-phenyl-5a,7,7a,7b-tetrahydrocyclopropa[4′,5′]cyclopenta[1′,2′:4,5]furo[3,2-b]pyridine-6a(6H)-carboxylate], for which the IC50 was over 1000 nM.

For `CN(C)C(=O)[C@H]1[C@@H](O)[C@@]2(O)c3ncc(Cl)cc3O[C@@]2(c2ccc(S(C)(=O)=O)cc2)[C@@H]1c1ccccc1` (single isomer, unassigned) [12F], the IC50 is over 1000 nM.

Take `COc1nc(Cl)cc2c1[C@]1(O)[C@@H](CN3CCOCC3)[C@H](CO)[C@@H](c3ccccc3)[C@]1(c1ccc(Br)cc1)O2` (racemic) [199F, Rac-(5aR,6S,7R,8R,8aR)-5a-(4-bromophenyl)-3-chloro-7-(hydroxymethyl)-1-methoxy-8-(morpholinomethyl)-6-phenyl-5a,6,7,8-tetrahydro-8aH-cyclopenta[4,5]furo[3,2-c]pyridin-8a-ol]: the IC50 is under 100 nM.

For the compound `CN(C)C(=O)[C@H]1[C@@H](O)[C@@]2(O)c3nn(C)cc3O[C@@]2(c2ccc(C#N)cc2)[C@@H]1c1ccccc1` (single isomer, unassigned) [23F], the IC50 was over 1000 nM.

On to `N#Cc1ccc([C@@]23Oc4cc(Cl)cnc4[C@]2(O)[C@H](O)[C@H](S(=O)(=O)Cc2ccccc2)[C@H]3c2ccccc2)cc1` (racemic) [94F, Rac-4-((5aR,6S,7R,8S,8aS)-7-(benzylsulfonyl)-3-chloro-8,8a-dihydroxy-6-phenyl-6,7,8,8a-tetrahydro-5aH-cyclopenta[4,5]furo[3,2-b]pyridin-5a-yl)benzonitrile], for which the IC50 was over 1000 nM.

In the case of `COc1nc(C#N)cc2c1[C@]1(O)[C@H](O)[C@H](CN3CCC(F)(F)CC3)[C@@H](c3ccccc3)[C@]1(c1ccc(C#N)cc1)O2` (racemic) [157Fc, Rac-(5aR,6S,7S,8R,8aS)-5a-(4-cyanophenyl)-7-((4,4-difluoropiperidin-1-yl)methyl)-8,8a-dihydroxy-1-methoxy-6-phenyl-5a,7,8,8a-tetrahydro-6H-cyclopenta[4,5]furo[3,2-c]pyridine-3-carbonitrile], the IC50 lay in the range of 100 to 1000 nM.

Take `CN(C)C(=O)[C@H]1[C@@H](O)[C@@]2(O)c3nn(C)c(Cl)c3O[C@@]2(c2ccc(C#N)cc2)[C@@H]1c1ccccc1` (racemic) [36F, Rac-(4aR,5S,6R,7R,7aS)-3-chloro-4a-(4-cyanophenyl)-7,7a-dihydroxy-N,N,2-trimethyl-5-phenyl-2,4a,5,6,7,7a-hexahydrocyclopenta[4,5]furo[3,2-c]pyrazole-6-carboxamide]: the IC50 is over 1000 nM.

`COc1nc(C#N)cc2c1[C@]1(O)[C@H](O)[C@H](CNC(C)(C)C)[C@@H](c3ccccc3)[C@]1(c1ccc(C#N)cc1)O2` (racemic) [155F, Rac-(5aR,6S,7S,8R,8aS)-7-((tert-butylamino)methyl)-5a-(4-cyanophenyl)-8,8a-dihydroxy-1-methoxy-6-phenyl-5a,7,8,8a-tetrahydro-6H-cyclopenta[4,5]furo[3,2-c]pyridine-3-carbonitrile]: the IC50 was 100 to 1000 nM.

As for `COc1nc(Cl)cc2c1[C@]1(O)[C@H](O)[C@H](CN(C)C)[C@@H](c3ccccc3)[C@]1(c1ccc(Cl)cc1)O2` (racemic) [142F, Rac-(5aR,6S,7S,8R,8aS)-3-chloro-5a-(4-chlorophenyl)-7-((dimethylamino)methyl)-1-methoxy-6-phenyl-5a,6,7,8-tetrahydro-8aH-cyclopenta[4,5]furo[3,2-c]pyridine-8,8a-diol], the IC50 is under 100 nM.

As for `CCN(CC)C[C@H]1[C@@H](O)[C@@]2(O)c3c(cc(C#N)nc3OC)O[C@@]2(c2ccc(Br)cc2)[C@@H]1c1ccccc1` (racemic) [159Fa, Rac-(5aR,6S,7S,8R,8aS)-5a-(4-bromophenyl)-7-((diethylamino)methyl)-8,8a-dihydroxy-1-methoxy-6-phenyl-5a,7,8,8a-tetrahydro-6H-cyclopenta[4,5]furo[3,2-c]pyridine-3-carbonitrile], the IC50 is under 100 nM.

With `COc1nc(C#N)cc2c1[C@]1(O)[C@@H](CN(C)C)[C@H](CO)[C@@H](c3ccccc3)[C@]1(c1ccc(C#N)cc1)O2` (racemic) [210F, Rac-(5aR,6S,7R,8R,8aR)-5a-(4-cyanophenyl)-8-((dimethylamino)methyl)-8a-hydroxy-7-(hydroxymethyl)-1-methoxy-6-phenyl-5a,7,8,8a-tetrahydro-6H-cyclopenta[4,5]furo[3,2-c]pyridine-3-carbonitrile], the IC50 was under 100 nM.

`O[C@@H]1C[C@@H](c2ccccc2)[C@]2(c3ccc(Br)cc3)Oc3cc(Cl)cnc3[C@]12O` (racemic) [127F, Rac-(5aR,6S,8R,8aS)-5a-(4-bromophenyl)-3-chloro-6-phenyl-5a,6,7,8-tetrahydro-8aH-cyclopenta[4,5]furo[3,2-b]pyridine-8,8a-diol]: the IC50 lay in the range of 100 to 1000 nM.

On to `COc1cncc2c1[C@]1(O)[C@H](O)C(CN3CCN(C)CC3)[C@@H](c3ccccc3)[C@]1(c1ccc(C(F)(F)F)cc1)O2` (single isomer, unassigned) [284F], for which the IC50 was 100 to 1000 nM.

With `COc1cncc2c1[C@]1(O)[C@H](O)[C@H](C(=O)N(C)C3CC3)[C@@H](c3ccccc3)[C@]1(c1ccc(Br)cc1)O2` (racemic) [245F, Rac-(4bS,5R,6R,7S,7aR)-7a-(4-bromophenyl)-N-cyclopropyl-4b,5-dihydroxy-4-methoxy-N-methyl-7-phenyl-4b,6,7,7a-tetrahydro-5H-cyclopenta[4,5]furo[2,3-c]pyridine-6-carboxamide], the IC50 lay within 100 to 1000 nM.

`COc1cncc2c1[C@]1(O)[C@H](O)[C@H](S(C)(=O)=O)[C@@H](c3ccccc3)[C@]1(c1ccc(Br)cc1)O2` (racemic) [101F, rac-(4bS,5S,6R,7S,7aR)-7a-(4-bromophenyl)-4-methoxy-6-(methylsulfonyl)-7-phenyl-5,6,7,7a-tetrahydro-4bH-cyclopenta[4,5]furo[2,3-c]pyridine-4b,5-diol]: the IC50 fell in the range of 100 to 1000 nM.

With `COc1cncc2c1[C@]1(O)[C@H](O)[C@H](CN(C)CCF)[C@@H](c3ccccc3)[C@]1(c1ccc(C#N)cc1)O2` (single isomer, unassigned) [248F], the IC50 was under 100 nM.

Regarding `CN(C)C(=O)[C@H]1[C@@H](O)[C@@]2(O)c3nn(C)c(Cl)c3O[C@@]2(c2ccc(Br)cc2)[C@@H]1c1ccccc1` (racemic) [37F, Rac-(4aR,5S,6R,7R,7aS)-4a-(4-bromophenyl)-3-chloro-7,7a-dihydroxy-N,N,2-trimethyl-5-phenyl-2,4a,5,6,7,7a-hexahydrocyclopenta[4,5]furo[3,2-c]pyrazole-6-carboxamide], the IC50 was over 1000 nM.

Take `COc1cncc2c1[C@]1(O)[C@H](O)[C@H](CN(C)C3COC3)[C@@H](c3ccccc3)[C@]1(c1ccc(C#N)cc1)O2` (racemic) [238F, Rac-4-((4bS,5R,6S,7S,7aR)-4b,5-dihydroxy-4-methoxy-6-((methyl(oxetan-3-yl)amino)methyl)-7-phenyl-4b,5,6,7-tetrahydro-7aH-cyclopenta[4,5]furo[2,3-c]pyridin-7a-yl)benzonitrile]: the IC50 fell in the range of 100 to 1000 nM.

`COc1cncc2c1[C@]1(O)[C@H](O)[C@H](CN3CCOCC3)[C@@H](c3ccccc3)[C@]1(c1ccc(C#N)cc1)O2` (single isomer, unassigned) [110F]: the IC50 was in the range of 100 to 1000 nM.

As for `C=C1C[C@@H](c2ccccc2)[C@]2(c3ccc(Br)cc3)Oc3cc(Cl)cnc3[C@]12O` (racemic) [34F, Rac-(5aR,6S,8aR)-5a-(4-bromophenyl)-3-chloro-8-methylene-6-phenyl-5a,6,7,8-tetrahydro-8aH-cyclopenta[4,5]furo[3,2-b]pyridin-8a-ol], the IC50 is over 1000 nM.

With `COc1nc(C#N)cc2c1[C@]1(O)[C@H](O)[C@H](CN3CC(F)(F)C3)[C@@H](c3ccccc3)[C@]1(c1ccc(C#N)cc1)O2` (racemic) [207Fa, Rac-(5aR,6S,7S,8R,8aS)-5a-(4-cyanophenyl)-7-((3,3-difluoroazetidin-1-yl)methyl)-8,8a-dihydroxy-1-methoxy-6-phenyl-5a,7,8,8a-tetrahydro-6H-cyclopenta[4,5]furo[3,2-c]pyridine-3-carbonitrile], the IC50 fell in the range of 100 to 1000 nM.

`COc1nc(C#N)cc2c1[C@]1(O)[C@H](O)[C@H](CN3CCOCC3)[C@@H](c3ccccc3)[C@]1(c1ccc(C#N)cc1)O2` (single isomer, unassigned) [151F]: the IC50 is under 100 nM.

For the compound `COc1nc(C#N)cc2c1[C@]1(O)[C@H](O)[C@H](CN(C)C)[C@@H](c3ccccc3)[C@]1(c1ccc(C(F)(F)F)cc1)O2` (single isomer, unassigned) [147F], the IC50 was under 100 nM.

With `COc1cncc2c1[C@]1(O)[C@H](O)[C@H](C(=O)N(C)CC(F)F)[C@@H](c3ccccc3)[C@]1(c1ccc(Br)cc1)O2` (racemic) [111F, Rac-(4bS,5R,6R,7S,7aR)-7a-(4-bromophenyl)-N-(2,2-difluoroethyl)-4b,5-dihydroxy-4-methoxy-N-methyl-7-phenyl-4b,6,7,7a-tetrahydro-5H-cyclopenta[4,5]furo[2,3-c]pyridine-6-carboxamide], the IC50 is under 100 nM.

As for `O[C@@H]1[C@H](Sc2ccccn2)[C@@H](c2ccccc2)[C@]2(c3ccc(Br)cc3)Oc3cc(Cl)cnc3[C@]12O` (racemic) [160Fa, Rac-(5aR,6S,7R,8S,8aS)-5a-(4-bromophenyl)-3-chloro-6-phenyl-7-(pyridin-2-ylthio)-5a,6,7,8-tetrahydro-8aH-cyclopenta[4,5]furo[3,2-b]pyridine-8,8a-diol], the IC50 was in the range of 100 to 1000 nM.

As for `Cc1ccc([C@@]23Oc4cc(Cl)cnc4[C@]2(O)[C@H](O)[C@H](C(=O)N(C)C)[C@H]3c2ccccc2)cc1` (single isomer, unassigned) [7F], the IC50 lay within 100 to 1000 nM.
